Columns and labels:
CEA [1] = biological target: T1, CEA (Homo sapiens, UniProt P06731); test: Later evaluation of CEA binding, method not given
T1 construct: purchased
T1 sequence (P06731 35-676): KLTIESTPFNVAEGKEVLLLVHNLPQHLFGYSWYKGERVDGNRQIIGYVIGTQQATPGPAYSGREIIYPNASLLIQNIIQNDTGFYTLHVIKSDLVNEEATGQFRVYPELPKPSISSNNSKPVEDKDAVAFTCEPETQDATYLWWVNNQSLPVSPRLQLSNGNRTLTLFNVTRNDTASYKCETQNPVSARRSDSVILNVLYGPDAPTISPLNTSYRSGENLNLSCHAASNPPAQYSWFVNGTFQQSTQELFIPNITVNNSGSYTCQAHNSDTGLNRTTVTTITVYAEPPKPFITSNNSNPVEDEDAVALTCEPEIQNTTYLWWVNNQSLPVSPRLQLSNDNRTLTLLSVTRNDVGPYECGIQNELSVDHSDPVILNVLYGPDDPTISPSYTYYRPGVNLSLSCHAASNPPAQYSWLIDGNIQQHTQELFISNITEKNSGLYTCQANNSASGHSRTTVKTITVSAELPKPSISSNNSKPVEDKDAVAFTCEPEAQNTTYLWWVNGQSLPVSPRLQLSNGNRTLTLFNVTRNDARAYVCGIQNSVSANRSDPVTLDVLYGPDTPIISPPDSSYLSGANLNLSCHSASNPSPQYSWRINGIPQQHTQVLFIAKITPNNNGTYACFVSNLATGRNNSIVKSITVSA

CEA [2] = biological target: T1, CEA; test: Fluorescence anisotropy direct binding to CEA; conditions: compared with binding to NA3
Method: Dissociation constants were determined using fluorescence anisotropy, through direct binding measurements to either NA-3 or CEA in PBS with 0.01% TWEEN 20. In direct binding assays, the concentration of the fluorescein-labeled peptide is held constant and the concentration of NA3 is varied. In the competition experiment, the concentration of the fluorescein-labeled peptide and the NA3 target are held constant and the concentration of competitor peptide (from Isolate 12-H12) is varied. The change in anisotropy is fit to the appropriate equation via nonlinear regression to obtain the apparent Kd. Isolate 304A-12-H12, previously isolated from Lib2 and assayed for binding, was analyzed in parallel as a control. Replicate analyses were run for certain binders and are reported to confirm accuracy and precision of measurements. KD standard error values are calculated from the nonlinear regression (SIGMAPLOT, SPSS Science, Chicago, Ill.).

H6NA3 = biological target: T2, H6NA3 (Homo sapiens, UniProt P06731); test: Fluorescence anisotropy direct binding to H6NA3 / NA3; conditions: from KD of Table 7 versus Table 3
T2 construct: H6NA3, consisting of a hexahistidine leader and the N and A3 domains of CEA, was used
T2 sequence (P06731 35-144 limits assumed): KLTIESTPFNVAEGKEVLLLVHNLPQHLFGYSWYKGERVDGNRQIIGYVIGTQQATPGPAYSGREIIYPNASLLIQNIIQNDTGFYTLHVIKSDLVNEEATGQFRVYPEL
T2 sequence (P06731 501-588 limits assumed): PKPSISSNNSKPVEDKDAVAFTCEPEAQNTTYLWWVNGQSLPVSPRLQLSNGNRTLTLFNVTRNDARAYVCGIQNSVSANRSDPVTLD
Method: (§1) Each peptide was also provided with a C-terminal amide-functional linker useful for immobilizing peptides to various chromatographic substrates: -Ala18-Pro19-Gly20-Gly-Glu-Gly-Gly-Gly-Ser-Lys-CONH2 (SEQ ID NO:28). […] Aliquots of each peptide were fluorescently labeled using NHS-fluorescein reacted with the ε-amino side group of the C-terminal lysine.
Dissociation constants were determined using fluorescence anisotropy, through direct binding measurements and competition experiments. In direct binding assays, the concentration of the fluorescein-labeled peptide is held constant and the concentration of H6NA3 is varied. In the competition experiment, the concentration of the fluorescein-labeled peptide and the H6NA3 target are held constant and the concentration of a competitor (cT84.66, unlabeled) is varied. The change in anisotropy is fit to the appropriate equation via nonlinear regression to obtain the apparent Kd.
Aliquots of each peptide were fluorescently labeled using NHS-fluorescein reacted with the ε-amino side group of the C-terminal lysine.
Dissociation constants were determined using fluorescence anisotropy, through direct binding measurements (see Example 6).
as §1, with “Peptides including the binding domain of the CEA binder Isolates were synthesized by solid-phase synthesis. Each” for “Each”
Dissociation constants were determined using fluorescence anisotropy, through direct binding measurements to either NA-3 or CEA in PBS with 0.01% TWEEN 20. […] Isolate 304A-12-H12, previously isolated from Lib2 and assayed for binding, was analyzed in parallel as a control. […] KD standard error values are calculated from the nonlinear regression (SIGMAPLOT, SPSS Science, Chicago, Ill.).

NA3 = biological target: T3, NA3 (Homo sapiens, UniProt P06731); test: Phage ELISA with varying amounts of NA3 per well (FIGS. 2, 4, 5); type: binding; conditions: FIG. 2; 100, 50, 10, 5, 1, 0 ng per well
T3 construct: H6NA3, consisting of a hexahistidine leader and the N and A3 domains of CEA, was used
T3 sequence (P06731 35-144 limits assumed): T2 sequence (P06731 35-144 limits assumed)
T3 sequence (P06731 501-588 limits assumed): T2 sequence (P06731 501-588 limits assumed)
Method: The first bar for each sample represents wells each having 100 ng CEA. Successive bars represent 50 ng, 10 ng, 5 ng, 1 ng, and 0 ng CEA per well.
The first bar for each sample represents wells each having 30 ng NA3. Successive bars represent 10 ng, 3 ng, and 0 ng NA3 per well.
Several Isolates gave especially strong ELISA signals and these were tested further.
Several Isolates gave especially strong ELISA signals and these were tested further. […] Isolate 304A-12-H12 (designated DX306) was assayed in parallel as a basis for comparison.

Molecule | binding to CEA with useful affinity (CEA [1]) | binding to CEA (in words) (CEA [2]) | increase in affinity compared to the Isolate G08 peptide (H6NA3) | phage ELISA binding profile to varying amounts of NA3 (NA3)
-RYCEFFPWSLHCGRP (Isolate of TN10/9 library found not to bind CEA) [Isolate B10] | not to bind CEA with useful affinity | – | – | –
NWRCKLFPRYPYCSSW (Isolate of TN10/9 library found not to bind CEA) [Isolate G01] | not to bind CEA with useful affinity | – | – | –
CC(C)C[C@H](NC(=O)[C@@H](NC(=O)[C@H](CC(N)=O)NC(=O)[C@@H]1CSSC[C@H](NC(=O)[C@@H](NC(=O)[C@H](Cc2c[nH]c3ccccc23)NC(=O)[C@H](CC(=O)O)NC(=O)[C@@H](N)CO)C(C)C)C(=O)N[C@@H](CCC(=O)O)C(=O)N[C@@H](Cc2ccc(O)cc2)C(=O)N[C@@H](Cc2ccccc2)C(=O)N[C@@H](CCCCN)C(=O)N[C@@H](CC(N)=O)C(=O)N[C@@H](CCC(N)=O)C(=O)N[C@@H](Cc2c[nH]c3ccccc23)C(=O)N[C@@H](Cc2ccccc2)C(=O)N1)C(C)C)C(=O)N[C@@H](C)C(=O)N1CCC[C@H]1C(=O)NCC(=O)NCC(=O)N[C@@H](CCC(=O)O)C(=O)NCC(=O)NCC(=O)NCC(=O)N[C@@H](CO)C(=O)N[C@@H](CCCCNC(=O)c1ccc2c(c1)C(=O)OC21c2ccc(O)cc2Oc2cc(O)ccc21)C(N)=O [Isolate 304A-12-H12, DWVCEYFKNQWFCNVL] | – | effectively bound CEA, but not as strongly as they bound NA3 | 8 fold | do not drop off so quickly

— patent US6919424B2, “Binding peptides for carcinoembryonic antigen (CEA)” (Dyax Corp., priority 2000, dated 2005)
